Results taken from US20210330611A1, “THERAPY FOR NEUROLOGICAL DISEASES/DISORDERS” (priority 2020, published 2021).
Several values for one entry are separate records, joined by “and”; a condition that tells them apart may be missing. Equal entries are not always repeated. Structures can show the parent of a compound that is named as a salt. Where two headings read alike, the source gives them in different places.

Tests used:
[1] = tested on: LPS-induced microglia activation; assay: Image-based assay of LPS-induced microglia activation (HTS and dose response); type: cell-based, rat
primary rat microglia [2] = tested on: primary rat microglia
[3] = tested on: fibrin- and LPS-induced microglia activation; assay: cells; type: cell-based, rat
[4] = tested on: fibrin-induced microglia activation; assay: Image-based assay of fibrin-induced microglia activation (HTS and dose response); type: cell-based, rat; settings: for inhibition at 10 µM: Rattus norvegicus, Microglia, read-out: Fibrin % inhibition
primary rat microglia [5] = tested on: primary rat microglia; remark: listed apart in the source
primary rat microglia [6] = assay: Cell toxicity (dead cells, size <150 μm2) in LPS assay
primary rat microglia [7] = assay: Cell toxicity (dead cells, size <150 μm2) in coated fibrin (cFib) assay;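 note: share of dead cells sized under 150 µm2 at 10 µM in fibrin-stimulated microglia HTS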
[8] = quadrant by fibrin and LPS inhibition in HTS of 1907 compounds
[9] = primary microglia HTS, fibrin stimulation, increased cell size (>800 μm^2) as marker of activation
[10] = Rattus norvegicus, Microglia, 48 h, read-out: LPS % inhibition
[11] = Rattus norvegicus, Microglia, 48 h, primary microglia HTS, LPS stimulation; increased cell size (>800 μm^2) as marker of activation; read-out: LPS % inhibition
[12] = Rattus norvegicus, Microglia, primary microglia HTS, LPS stimulation, compounds at 10 μM; read-out: LPS % inhibition
[13] = classification by fibrin and LPS inhibition, HTS at 10 μM
[14] = primary microglia HTS, fibrin stimulation, compounds at 10 μM
[15] = primary microglia HTS, LPS stimulation, decreased size (<150 μm^2) as marker of toxicity
[16] = Rattus norvegicus, Microglia, read-out: LPS % inhibition
[17] = Rattus norvegicus, Microglia, 48 h; read-out: LPS % inhibition
[18] = classification by fibrin and LPS inhibition in HTS
[19] = primary microglia HTS, fibrin stimulation, cell size >800 μm2 as marker of activation
[20] = primary microglia HTS, LPS stimulation, compounds at 10 μM; 10 µM

## C#C[C@]1(O)CC[C@H]2[C@@H]3CCC4=CC(=O)CC[C@@H]4[C@H]3CC[C@@]21C [Norethindrone]
[1]
  LPS % inhibition: 15%
Primary rat microglia [2]; rat
  Fibrin % cell toxicity: 0%
[3]
  Quadrant (FIG. 5b): Q4
[4]
  inhibition at 10 µM: 9%

## CCC(C)n1ncn(-c2ccc(N3CCN(c4ccc(OCC5COC(Cn6cncn6)(c6ccc(Cl)cc6Cl)O5)cc4)CC3)cc2)c1=O (centres unmarked) [Itraconazole]
Primary rat microglia [2]; rat
  Fibrin % cell toxicity: 1%
[3]; [8]
  Quadrant (FIG. 5b): Q4

## C[C@@H]1O[C@@H](O[C@H]2C[C@@H](O)[C@]3(CO)[C@H]4[C@H](O)C[C@]5(C)[C@@H](C6=CC(=O)OC6)CC[C@]5(O)[C@@H]4CC[C@]3(O)C2)[C@H](O)[C@H](O)[C@H]1O [Ouabain]
Primary rat microglia [5]; rat
  LPS % cell toxicity: 0%
Primary rat microglia [2]; rat
  Fibrin % cell toxicity: 0%
[3]; [8]
  Quadrant (FIG. 5b): Q4

## CCCCCCCCCCC[C@@H](C[C@@H]1OC(=O)[C@H]1CCCCCC)OC(=O)[C@H](CC(C)C)NC=O [Orlistat]
Primary rat microglia [2]; rat
  Fibrin % cell toxicity: 1%
[3]; [8]
  Quadrant (FIG. 5b): Q4
[4]; [9]
  inhibition at 10 µM: 17%

## CN1C2CCCC1CC(NC(=O)c1nn(C)c3ccccc13)C2 (centres unmarked) [Granisetron]
Primary rat microglia [5]; rat
  LPS % cell toxicity: 0%
Primary rat microglia [2]; rat
  Fibrin % cell toxicity: 1%
[3]; [8]
  Quadrant (FIG. 5b): Q4

## [H]/N=C(/N)N/C(=N/[H])NCCc1ccccc1 [Phenformin]
[1]; [10]
  inhibition at 10 µM: 13%
Primary rat microglia [2]; rat
  Fibrin % cell toxicity: 1%
[3]
  Quadrant (FIG. 5b): Q4
[4]
  inhibition at 10 µM: -30%

## CC(=O)[O-].[Hg+][c]1ccccc1 [Phenylmercuric Acetate]
Primary rat microglia [5]; rat
  LPS % cell toxicity: 80%
Primary rat microglia [2]; rat
  Fibrin % cell toxicity: 82%

## O=c1[nH]c(=O)n([C@H]2C[C@H](O)[C@@H](CO)O2)cc1F [Floxuridine]
Primary rat microglia [5]; rat
  LPS % cell toxicity: 0%
Primary rat microglia [2]; rat
  Fibrin % cell toxicity: 1%
[3]; [8]
  Quadrant (FIG. 5b): Q4

## CN(Cc1cnc2nc(N)nc(N)c2n1)c1ccc(C(=O)N[C@@H](CCC(=O)O)C(=O)O)cc1 (racemic) [Methotrexate(+/−)]
[1]; primary microglia HTS, LPS stimulation; increased cell size (>800 μm^2) as marker of activation
  LPS % inhibition: 0%
Primary rat microglia [2]
  Fibrin % cell toxicity: 0%
[4]; [9]
  Fibrin % inhibition: 0%

## CCOc1cc(NC(C)=O)ccc1C(=O)OC [Ethopabate]
Primary rat microglia [5]; rat
  LPS % cell toxicity: 0%
Primary rat microglia [2]; rat
  Fibrin % cell toxicity: 0%
[3]
  Quadrant (FIG. 5b): Q4

## C[C@]12CC[C@@H]3c4ccc(O)cc4CC[C@H]3[C@@H]1CCC2=O [Estrone]
Primary rat microglia [5]; rat
  LPS % cell toxicity: 0%
[1]; [11]
  inhibition at 10 µM: 106%
[1]; [12]
  inhibition at 10 µM: 16%
[3]; [13]
  Quadrant (FIG. 5b): Q4
[3]; [8]
  Quadrant (FIG. 5b): Q2
[4]; [14]
  inhibition at 10 µM: 35%
[4]; [9]
  inhibition at 10 µM: 106%
Primary rat microglia [6]; [15]
  LPS % cell toxicity: 25%

## Clc1ccc(CSC(Cn2ccnc2)c2ccc(Cl)cc2Cl)cc1 (centres unmarked) [Sulconazole]
Primary rat microglia [5]; rat
  LPS % cell toxicity: 1%
Primary rat microglia [2]; rat
  Fibrin % cell toxicity: 1%
[3]
  Quadrant (FIG. 5b): Q4

## CC(C)Cn1cnc2c(N)nc3ccccc3c21 [Imiquimod]
Primary rat microglia [5]; rat
  LPS % cell toxicity: 0%
Primary rat microglia [2]; rat
  Fibrin % cell toxicity: 0%
[3]
  Quadrant (FIG. 5b): Q4

## Clc1ccc(CO/N=C(\Cn2ccnc2)c2ccc(Cl)cc2Cl)c(Cl)c1 [Oxiconazole]
Primary rat microglia [5]; rat
  LPS % cell toxicity: 1%
Primary rat microglia [2]; rat
  Fibrin % cell toxicity: 1%
[3]
  Quadrant (FIG. 5b): Q4

## Clc1ccc(C(Cn2ccnc2)OCc2ccsc2Cl)c(Cl)c1 (centres unmarked) [Tioconazole]
[1]; 10 µM
  LPS % inhibition: 8%
[1]; [16]
  inhibition at 10 µM: 12%
Primary rat microglia [2]; rat
  Fibrin % cell toxicity: 1%
[3]
  Quadrant (FIG. 5b): Q4

## CN(C)CCN(Cc1cccs1)c1ccccn1 [Methapyrilene]
Primary rat microglia [5]; rat
  LPS % cell toxicity: 0%
Primary rat microglia [2]; rat
  Fibrin % cell toxicity: 1%
[3]
  Quadrant (FIG. 5b): Q4

## Pyrethrins
Primary rat microglia [5]
  LPS % cell toxicity: 0%
Primary rat microglia [2]
  Fibrin % cell toxicity: 0%

## CC[C@H](C)C(=O)O[C@H]1C[C@@H](C)C=C2C=C[C@H](C)[C@H](CC[C@@H]3C[C@@H](O)CC(=O)O3)[C@H]21 [Lovastatin]
[1]; [10]
  inhibition at 10 µM: 87%
Primary rat microglia [2]; rat
  Fibrin % cell toxicity: 3%
[3]
  Quadrant (FIG. 5b): Q2
[4]
  inhibition at 10 µM: 106%

## CN1C2CCCC1CC(NC(=O)c1nn(C)c3ccccc13)C2 (centres unmarked) [Granisetron Hydrochloride]
Primary rat microglia [5]; rat
  LPS % cell toxicity: 0%
Primary rat microglia [2]; rat
  Fibrin % cell toxicity: 0%
[3]; [8]
  Quadrant (FIG. 5b): Q4

## CC1(C)S[C@@H]2[C@H](NC(=O)[C@H](N)c3ccc(O)cc3)C(=O)N2[C@H]1C(=O)O [Amoxicillin]
[1]; [16]
  inhibition at 10 µM: 12%
Primary rat microglia [2]; rat
  Fibrin % cell toxicity: 0%
[3]
  Quadrant (FIG. 5b): Q4
[4]
  inhibition at 10 µM: -14%

## Nc1nc(Cl)nc2c1ncn2[C@@H]1O[C@H](CO)[C@@H](O)[C@@H]1F [Clofarabine]
[1]; primary HTS, 10 μM, LPS-stimulated primary microglia
  LPS % inhibition: −2% and 8%
Primary rat microglia [2]; rat
  Fibrin % cell toxicity: 1%
[3]; primary HTS, 10 μM
  Quadrant (FIG. 5b): Q4

## C#C[C@]1(O)CC[C@H]2[C@@H]3CCC4=CC(=O)CC[C@@H]4[C@H]3CC[C@@]21C [Norethisterone]
[1]
  LPS % inhibition: 1%
Primary rat microglia [2]; rat
  Fibrin % cell toxicity: 1%
[3]
  Quadrant (FIG. 5b): Q4
[4]
  Fibrin % inhibition: 18%

## Cn1c(=O)c2c(ncn2CC2OCCO2)n(C)c1=O [Doxofylline]
[1]; [12]
  inhibition at 10 µM: 18%
Primary rat microglia [2]; rat
  Fibrin % cell toxicity: 0%
[3]; [13]
  Quadrant (FIG. 5b): Q4
[4]; [14]
  inhibition at 10 µM: -42%

## NC(=O)C(c1ccccc1)(c1ccccc1)[C@@H]1CCN(CCc2ccc3c(c2)CCO3)C1 [Darifenacin Hydrobromide]
Primary rat microglia [5]; rat
  LPS % cell toxicity: 0%
Primary rat microglia [2]; rat
  Fibrin % cell toxicity: 1%

## O=C(CCCCCCC(=O)Nc1ccccc1)NO [Vorinostat]
Primary rat microglia [5]; rat
  LPS % cell toxicity: 50%
Primary rat microglia [2]; rat
  Fibrin % cell toxicity: 89%
[3]; quadrant by fibrin and LPS inhibition, HTS at 10 μM
  Quadrant (FIG. 5b): Q2

## O=c1[nH]c(=O)n([C@H]2C[C@H](O)[C@@H](CO)O2)cc1I [Idoxuridine]
Primary rat microglia [2]; rat
  Fibrin % cell toxicity: 1%
[3]; [8]
  Quadrant (FIG. 5b): Q4

## C(=C\c1ccccc1)/CN1CCN(C(c2ccccc2)c2ccccc2)CC1 [Cinnarizine]
Primary rat microglia [5]; rat
  LPS % cell toxicity: 0%
Primary rat microglia [2]; rat
  Fibrin % cell toxicity: 1%
[3]
  Quadrant (FIG. 5b): Q4

## CC(=O)c1ccc2c(c1)N(CCCN1CCC(CCO)CC1)c1ccccc1S2 [Piperacetazine]
[1]; [17]
  inhibition at 10 µM: 48%
Primary rat microglia [2]; rat
  Fibrin % cell toxicity: 0%
[3]; [18]
  Quadrant (FIG. 5b): Q4
[4]; [19]
  inhibition at 10 µM: -32%

## O=C(O)c1ccccc1O [Salicylic Acid]
[1]; [17]
  inhibition at 10 µM: 14%
Primary rat microglia [2]; rat
  Fibrin % cell toxicity: 0%
[3]; [18]
  Quadrant (FIG. 5b): Q4
[4]; [19]
  inhibition at 10 µM: -32%

## C#C[C@]1(O)CC[C@H]2[C@@H]3CCC4=Cc5oncc5C[C@]4(C)[C@H]3CC[C@@]21C [Danazol]
Primary rat microglia [5]; rat
  LPS % cell toxicity: 0%
[1]; [11]
  inhibition at 10 µM: 99%
[1]; [12]
  inhibition at 10 µM: 5%
[3]; [13]
  Quadrant (FIG. 5b): Q4
[3]; [8]
  Quadrant (FIG. 5b): Q2
Primary rat microglia [7]; primary microglia HTS, fibrin assay, dead cells (size <150 μm2), compounds at 10 μM
  Fibrin % cell toxicity: 1%
Primary rat microglia [7]; primary microglia HTS, fibrin stimulation, decreased size (<150 μm^2) as marker of toxicity
  Fibrin % cell toxicity: 28%
[4]; [14]
  inhibition at 10 µM: -14%
[4]; [9]
  inhibition at 10 µM: 105%
Primary rat microglia [6]; [15]
  LPS % cell toxicity: 14%

## CCC1(c2ccccc2)C(=O)NCNC1=O [Primidone]
[1]; [10]
  inhibition at 10 µM: 12%
Primary rat microglia [2]; rat
  Fibrin % cell toxicity: 1%
[3]
  Quadrant (FIG. 5b): Q4
[4]
  inhibition at 10 µM: -15%

## O=C(O)CN(CCN(CC(=O)O)CC(=O)O)CC(=O)O [Edetic Acid]
Primary rat microglia [2]; rat
  Fibrin % cell toxicity: 0%
[3]
  Quadrant (FIG. 5b): Q4

## C=C1C[C@@H]2[C@H](CC[C@]3(C)C(=O)CC[C@@H]23)[C@@]2(C)C=CC(=O)C=C12 [Exemestane]
[1]; [12]
  inhibition at 10 µM: 21%
[1]; [20]
  LPS % inhibition: 34%
Primary rat microglia [2]; rat
  Fibrin % cell toxicity: 1%
[3]; [13]
  Quadrant (FIG. 5b): Q4
[4]; [14]
  inhibition at 10 µM: 22%
[4]; primary microglia HTS, fibrin stimulation, compounds at 10 μM, 10 µM
  Fibrin % inhibition: 31%

## CC(=O)O[C@]1(C(C)=O)CC[C@H]2[C@@H]3C=C(Cl)C4=CC(=O)[C@@H]5C[C@@H]5[C@]4(C)[C@H]3CC[C@@]21C [Cyproterone Acetate]
[1]; [20]
  LPS % inhibition: 12% and 3%
Primary rat microglia [2]; rat
  Fibrin % cell toxicity: 1%
[3]; [13]
  Quadrant (FIG. 5b): Q4

## CCNC(=O)[C@@H]1CCCN1C(=O)[C@H](CCCNC(=N)N)NC(=O)[C@H](CC(C)C)NC(=O)[C@@H](CC(C)C)NC(=O)[C@H](Cc1ccc(O)cc1)NC(=O)[C@H](CO)NC(=O)[C@H](Cc1c[nH]c2ccccc12)NC(=O)[C@H](Cc1c[nH]cn1)NC(=O)[C@@H]1CCC(=O)N1 [Leuprolide]
[1]; primary microglia HTS, LPS stimulation, activation = cell size >800 μm2
  LPS % inhibition: −3%
[3]; [8]
  Quadrant (FIG. 5b): Q4
Primary rat microglia [7]; primary microglia HTS, fibrin stimulation, toxicity = cell size <150 μm2
  Fibrin % cell toxicity: 1%
[4]; primary microglia HTS, fibrin stimulation, activation = cell size >800 μm2
  Fibrin % inhibition: 5%
Primary rat microglia [6]; primary microglia HTS, LPS stimulation, toxicity = cell size <150 μm2
  LPS % cell toxicity: −1%

## Cc1nc(C)c(Cl)c(O)c1Cl [Clopidol]
[1]; Rattus norvegicus, Microglia, primary HTS, 10 μM, LPS-stimulated primary microglia; read-out: LPS % inhibition
  inhibition at 10 µM: 9%
[3]; primary HTS, 10 μM
  Quadrant (FIG. 5b): Q4
Primary rat microglia [7]; primary HTS, 10 μM, fibrin assay, dead cells size <150 μm2
  Fibrin % cell toxicity: 1%
[4]; primary HTS, 10 μM, fibrin-stimulated primary microglia
  inhibition at 10 µM: -41%
Primary rat microglia [6]; primary HTS, 10 μM, LPS assay, dead cells size <150 μm2
  LPS % cell toxicity: 0%
